Measurements as given in ChEMBL document CHEMBL4421728, “Bach1 Inhibitors in Combination with Nrf2 Activators and Pharmaceutical Compositions Thereof” (2017).
Each block holds one molecule with its values, some of them ahead of it.

Key:
[1] = target: T1, Nuclear factor erythroid 2-related factor 2 (Homo sapiens) (UniProt Q16236); experiment: Activation of Nrf2 in normal human lung fibroblasts assessed as induction of HMOX protein expression at 0.0097 uM incubated for 16 to 18 hrs by immunostaining relative to control
T1 sequence (whole entry): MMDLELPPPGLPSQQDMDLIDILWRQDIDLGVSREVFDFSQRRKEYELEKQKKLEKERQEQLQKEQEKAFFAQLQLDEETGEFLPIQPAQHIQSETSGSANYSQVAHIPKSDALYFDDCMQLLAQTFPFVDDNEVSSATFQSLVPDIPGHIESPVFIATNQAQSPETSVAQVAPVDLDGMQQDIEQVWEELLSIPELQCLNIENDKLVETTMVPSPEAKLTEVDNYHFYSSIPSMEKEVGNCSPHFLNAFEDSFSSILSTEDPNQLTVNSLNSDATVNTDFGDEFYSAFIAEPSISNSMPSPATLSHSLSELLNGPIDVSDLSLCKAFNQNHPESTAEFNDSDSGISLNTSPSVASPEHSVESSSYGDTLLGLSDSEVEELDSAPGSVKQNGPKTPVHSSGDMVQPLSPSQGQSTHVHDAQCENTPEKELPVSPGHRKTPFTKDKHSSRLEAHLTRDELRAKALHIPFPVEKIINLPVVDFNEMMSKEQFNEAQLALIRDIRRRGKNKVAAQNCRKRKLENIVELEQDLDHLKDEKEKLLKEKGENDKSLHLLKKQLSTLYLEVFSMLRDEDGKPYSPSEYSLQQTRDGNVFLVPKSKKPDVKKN

[2] = target: T1, Nuclear factor erythroid 2-related factor 2 (Homo sapiens); experiment: Activation of Nrf2 in normal human lung fibroblasts assessed as induction of HMOX protein expression at 0.019 uM incubated for 16 to 18 hrs by immunostaining relative to control
[3] = target: T1, Nuclear factor erythroid 2-related factor 2 (Homo sapiens); experiment: Activation of Nrf2 in normal human lung fibroblasts assessed as induction of HMOX protein expression at 0.078 uM incubated for 16 to 18 hrs by immunostaining relative to control
[4] = target: T1, Nuclear factor erythroid 2-related factor 2 (Homo sapiens); experiment: Activation of Nrf2 in normal human lung fibroblasts assessed as induction of HMOX protein expression at 0.0024 uM incubated for 16 to 18 hrs by immunostaining relative to control
[5] = target: T1, Nuclear factor erythroid 2-related factor 2 (Homo sapiens); experiment: Activation of Nrf2 in normal human lung fibroblasts assessed as induction of HMOX protein expression at 0.156 uM incubated for 16 to 18 hrs by immunostaining relative to control
[6] = target: T1, Nuclear factor erythroid 2-related factor 2 (Homo sapiens); experiment: Activation of Nrf2 in normal human lung fibroblasts assessed as induction of HMOX protein expression at 0.039 uM incubated for 16 to 18 hrs by immunostaining relative to control
[7] = target: T1, Nuclear factor erythroid 2-related factor 2 (Homo sapiens); experiment: Activation of Nrf2 in normal human lung fibroblasts assessed as induction of HMOX protein expression at 0.0048 uM incubated for 16 to 18 hrs by immunostaining relative to control
[8] = target: T1, Nuclear factor erythroid 2-related factor 2 (Homo sapiens); experiment: Activation of Nrf2 in normal human lung fibroblasts assessed as induction of HMOX protein expression at 0.312 uM incubated for 16 to 18 hrs by immunostaining relative to control
[9] = target: T1, Nuclear factor erythroid 2-related factor 2 (Homo sapiens); experiment: Activation of Nrf2 in normal human lung fibroblasts assessed as induction of HMOX protein expression at 1 uM incubated for 16 to 18 hrs by immunostaining relative to control
[10] = target: T1, Nuclear factor erythroid 2-related factor 2 (Homo sapiens); experiment: Activation of Nrf2 in normal human lung fibroblasts assessed as induction of HMOX protein expression at 30 uM incubated for 16 to 18 hrs by immunostaining relative to control
[11] = target: T1, Nuclear factor erythroid 2-related factor 2 (Homo sapiens); experiment: Activation of Nrf2 in normal human lung fibroblasts assessed as induction of HMOX protein expression by measuring HMOX positive cells level at 1 uM incubated for 16 to 18 hrs by immunostaining relative to control DMSO
[12] = target: T1, Nuclear factor erythroid 2-related factor 2 (Homo sapiens); experiment: Activation of Nrf2 in normal human lung fibroblasts assessed as induction of HMOX protein expression by measuring HMOX positive cells level at 0.3 uM incubated for 16 to 18 hrs by immunostaining relative to control DMSO
[13] = target: T1, Nuclear factor erythroid 2-related factor 2 (Homo sapiens); experiment: Activation of Nrf2 in normal human lung fibroblasts assessed as induction of HMOX protein expression by measuring HMOX positive cells level at 30 uM incubated for 16 to 18 hrs by immunostaining relative to control DMSO
[14] = target: T1, Nuclear factor erythroid 2-related factor 2 (Homo sapiens); experiment: Activation of Nrf2 in normal human lung fibroblasts assessed as induction of HMOX protein expression at 10 uM incubated for 16 to 18 hrs by immunostaining relative to control
[15] = target: T1, Nuclear factor erythroid 2-related factor 2 (Homo sapiens); experiment: Activation of Nrf2 in normal human lung fibroblasts assessed as induction of HMOX protein expression at 0.03 uM incubated for 16 to 18 hrs by immunostaining relative to control
[16] = target: T1, Nuclear factor erythroid 2-related factor 2 (Homo sapiens); experiment: Activation of Nrf2 in normal human lung fibroblasts assessed as induction of HMOX protein expression by measuring HMOX positive cells level at 3 uM incubated for 16 to 18 hrs by immunostaining relative to control DMSO
[17] = target: T1, Nuclear factor erythroid 2-related factor 2 (Homo sapiens); experiment: Activation of Nrf2 in normal human lung fibroblasts assessed as induction of HMOX protein expression by measuring HMOX positive cells level at 10 uM incubated for 16 to 18 hrs by immunostaining relative to control DMSO
[18] = target: T1, Nuclear factor erythroid 2-related factor 2 (Homo sapiens); experiment: Activation of Nrf2 in normal human lung fibroblasts assessed as induction of HMOX protein expression by measuring HMOX positive cells level at 0.1 uM incubated for 16 to 18 hrs by immunostaining relative to control DMSO
[19] = target: T1, Nuclear factor erythroid 2-related factor 2 (Homo sapiens); experiment: Activation of Nrf2 in normal human lung fibroblasts assessed as induction of HMOX protein expression at 0.3 uM incubated for 16 to 18 hrs by immunostaining relative to control
[20] = target: T1, Nuclear factor erythroid 2-related factor 2 (Homo sapiens); experiment: Activation of Nrf2 in normal human lung fibroblasts assessed as induction of HMOX protein expression at 3 uM incubated for 16 to 18 hrs by immunostaining relative to control
[21] = target: T1, Nuclear factor erythroid 2-related factor 2 (Homo sapiens); experiment: Activation of Nrf2 in normal human lung fibroblasts assessed as induction of HMOX protein expression at 0.1 uM incubated for 16 to 18 hrs by immunostaining relative to control
[22] = target: T1, Nuclear factor erythroid 2-related factor 2 (Homo sapiens); experiment: Activation of Nrf2 in normal human lung fibroblasts assessed as induction of HMOX protein expression by measuring HMOX positive cells level at 0.03 uM incubated for 16 to 18 hrs by immunostaining relative to control DMSO

fold change (FC) [1]: 2.53 | fold change (FC) [2]: 5 | fold change (FC) [3]: 12.2 | fold change (FC) [4]: 1.31 | fold change (FC) [5]: 19 | fold change (FC) [6]: 8.48 | fold change (FC) [7]: 1.59 | fold change (FC) [8]: 16.4
Structure (SMILES): COC(=O)[C@]12CCC(C)(C)C[C@H]1[C@H]1C(=O)C=C3[C@@]4(C)C=C(C#N)C(=O)C(C)(C)[C@@H]4CC[C@@]3(C)[C@]1(C)CC2

fold change (FC) [9]: 1.39 | fold change (FC) [10]: 6.19 | Activity [11]: 4.38% | Activity [12]: 2.47% | Activity [13]: 84.6% | fold change (FC) [14]: 4.45 | fold change (FC) [15]: 1.04 | Activity [16]: 41.6% | Activity [17]: 74.3% | Activity [18]: 1.21% | fold change (FC) [19]: 1.14 | fold change (FC) [20]: 2.76 | fold change (FC) [21]: 1.06 | Activity [22]: 1.71%
Structure (SMILES): COC(=O)/C=C/C(=O)OC
